From a melting point compilation (Tetko et al.; mined from patent text by program, amines drawn as free bases though some values may be those of a salt)

| melting point | SMILES |
| --- | --- |
| > 270 °C | O=C(Nc1c(Cl)cncc1Cl)c1ccc(OC(F)F)c2oc3ccc([N+](=O)[O-])cc3c12 |
| 165 to 168 °C | COc1cccc2c1-c1ccc(NS(C)(=O)=O)cc1C(c1cccc(N(C)C(C)=O)c1)O2 (stereo not drawn) |
| 100 to 103 °C | NS(=O)(=O)c1cc(C2CO2)ccc1F (stereo not drawn) |
| 329 to 330 °C | CC(C)(C)NC(=O)Nc1nc2nc(N)ncc2cc1-c1c(Cl)ccc(Cl)c1Cl |
| 194 to 195 °C | O=C(O)CN(C(=O)CCCOc1ccc2c(c1)CN1CC(=O)NC1=N2)C1CCCCC1 |
| 167 to 169 °C | O=C(O)C1Cc2c(ncn2Cc2ccccc2)CN1C(=O)C(c1ccccc1)c1ccccc1 (stereo not drawn) |
| 205 to 206 °C | Cc1ncc2c(c1O)COC2S(C)(=O)=O (stereo not drawn) |
| 175 to 176 °C | CC(=O)N1C(C)(C)CC(Oc2nc(OC3CC(C)(C)N(O)C(C)(C)C3)nc(N3C(C)(C)CCCC3(C)C)n2)CC1(C)C |
| 177 to 179 °C | CCOC(=O)c1sc(N)nc1CC |
| 155 to 165 °C | Cc1cc(OCc2oc(-c3ccc(C(F)(F)F)cc3)nc2C)ccc1/C=C/C(=O)O |
| 97 to 98 °C | CC1(C)c2cc(OS(C)(=O)=O)ccc2OC1N1CCCCC1 (stereo not drawn) |
| 138 to 141 °C | O=C(O)c1ccoc1Cl |
| 42 to 43 °C | Cc1cc(CCCCCOc2c(Cl)cc(-c3noc(C(F)(F)F)n3)cc2Cl)on1 |
| 106 to 107 °C | CC(=O)NCCC1CCc2ccn3nc(C)cc3c21 (stereo not drawn) |
| 250 °C | Cc1nn(C)c(C2=NC(C)C(C)N2)c1N (stereo not drawn) |
| 169 to 170 °C | Cc1c(NC(=O)c2ccc(OC[C@@H]3CCCO3)cc2)ccc2[nH]c(CNCC(C)(C)O)cc12 |
| 130 to 132 °C | N#CCN1CCC(c2noc3cc(F)ccc23)CC1 |
| 85 °C | CC(=CC(=O)O)C[N+](=O)[O-] |
| 72 to 74 °C | COc1cc(N)c(SC)cc1OC |
| 158 to 159 °C | CC(C)(C)c1nc(C(=O)c2cccs2)nc(C(C)(C)C)c1O |
| 228 to 230 °C | COc1ccc(CNc2ccnc(Cl)c2C(=O)O)cc1Cl |
| 86 to 87 °C | S=C=Nc1cc(Cl)ccc1N1CCOCC1 |
| 120 to 121 °C | CSc1cnc(OCCOc2ncnc(NS(=O)(=O)c3ccc(C(C)(C)C)cc3)c2Br)nc1 |
| 174 °C | Nc1ccc(-c2cc(OCC(=O)N3CCOCC3)c3ccccc3n2)cc1 |

| melting point | SMILES |
| --- | --- |
| 94 to 98 °C | COC(=O)CCn1nnnc1C1N2C(=O)C(NC(c3ccccc3)(c3ccccc3)c3ccccc3)C2SC1(C)C (stereo not drawn) |
| 128 to 130 °C | CNCC(=O)N1Cc2cccc3c2N(CC3)c2ccccc21 |
| 232 to 235 °C | Cc1ccsc1C(=O)Nc1ccc(C(=O)N2Cc3cccn3Cc3ccccc32)cc1 |
| 117 to 118 °C | COc1ccc([C@@H]2Sc3cc(C)c(C)cc3N(CCN(C)C)C(=O)[C@@H]2O)cc1 |
| 215 to 216 °C | CN(Cc1cc2c(-c3ccccc3)c(CC(=O)Nc3ccc(Cl)cc3C(F)(F)F)c(=O)oc2cc1Cl)C(=O)c1ccccc1 |
| 151 to 153 °C | Cc1cn(-c2ccc(N3C[C@H](CO)OC3=O)cc2F)cn1 |
| 200 to 202 °C | N#CCC1CCN(c2ccc(N3C[C@@H](Cn4cc(C#N)nn4)OC3=O)cc2F)CC1 |
| 73 °C | CC(C)Cc1ccc([N+](=O)[O-])cc1C#N |
| 45 to 48 °C | CCCCCCCCC(=O)Oc1cc2c(s1)CCN(C(C(=O)C1CC1)c1ccccc1F)C2 (stereo not drawn) |
| 200 to 202 °C | CCOCc1nc2c(N)nc(C)c(C)c2n1CCCCS(N)(=O)=O |
| 243 to 245 °C | O=C1CCC(N2Cc3cc(CNC(=O)Nc4ccccc4)ccc3C2=O)C(=O)N1 (stereo not drawn) |
| 221 to 224 °C | CCn1c(C(O)(C2CCCCC2)C2CCCCC2)nc(-c2ccncc2)c1-c1ccc(Cl)cc1 |
| 140 to 143 °C | COC(=O)CCCc1cc2cc(Cl)ccc2n1S(=O)(=O)c1cc(C)cc(C)c1 |
| 259 to 261 °C | CC(=NO)c1ccc2nnn(Cc3ccc4ncccc4c3)c2n1 |
| 159 to 160 °C | O=C1N(Cc2noc(C(F)(F)F)n2)c2ccccc2C12COc1cc3c(cc12)OCCO3 (stereo not drawn) |
| 127 to 128 °C | CC1(CO)OCC2(CO1)COC(C)(CO)OC2 (stereo not drawn) |
| 96 °C | CCCCCCCCCCCCCCCc1cccc(OCC(=O)O)c1 |
| 202 to 206 °C | CCc1oc2ccccc2c1C(=O)c1ccc(Br)c(S(N)(=O)=O)c1 |
| 57 to 58 °C | Fc1ccccc1COc1nn(Cc2ccccc2F)c2ncccc12 |
| 118 °C | O=Ic1ccc(Cl)cc1[N+](=O)[O-] |
| 272 °C | Cc1cccc2nc(NC(=O)c3ccc(C4(C(=O)O)CCC4)cc3)cn12 |
| > 250 °C | N#Cc1cnc2sc(C#Cc3ccncc3)cc2c1Nc1ccc2[nH]ccc2c1 |
| 202 to 205 °C | Cc1ccc2c(c1)N(CC(=O)c1ccccc1C)C(=O)C(NC(=O)Nc1cccc(C(=O)O)c1)CN2C(=O)CC(C)C (stereo not drawn) |
| 37 to 38 °C | CC(=O)SCSc1cnnn1C |

| melting point | SMILES |
| --- | --- |
| 118 to 119 °C | Cc1oc(-c2ccccc2)nc1COc1ccc(COc2nn(-c3ccccc3)cc2CO)cc1 |
| 190 to 194 °C | CCOCc1nc2c(N)nc3cc(OCCCCCCNS(C)(=O)=O)ccc3c2n1CC(C)(C)NC(=O)NC(C)C |
| 122 to 124 °C | CCOc1cc(C(=CC#N)c2ccc(OC)c(F)c2)ccc1OC |
| 163 to 166 °C | CN(Cc1sc2c(=O)c(C(=O)NCc3ccc(Cl)cc3)cn(C)c2c1COCC[Si](C)(C)C)CC(O)c1ccc2ccccc2n1 (stereo not drawn) |
| 263 °C | CC(C)Oc1ccc(-c2ccc3nc(C(=O)NC(Cc4ccc(OCc5ccccc5)cc4)C(=O)O)cn3c2)cc1 (stereo not drawn) |
| 168 to 170 °C | CC1(C)Oc2ccc(C#N)cc2[C@@H](NC(=O)Nc2cccc(-c3ncno3)c2)[C@@H]1O |
| 163 to 164 °C | O=C(O)CCC/C=C/c1nn(-c2ccc([N+](=O)[O-])cc2)c2c1CCC2 |
| 175 to 177 °C | COCON1C(=O)C(=C/c2ccccc2)/C(=C\c2cc(OC)c(OC)c(OC)c2)C1=O |
| 276 to 278 °C | CCCOc1ccc(S(N)(=O)=O)cc1C1=NC(=O)C2=NC=NC2=N1 |
| 189 to 190 °C | COc1ccc2[nH]c(C(F)(F)F)c(C#N)c2c1 |
| 53 to 54 °C | CCOC(=O)CCCC(=O)c1ccc(Br)s1 |
| 92 to 93 °C | Cc1c(=O)o[n-][n+]1CCSC12CC3CC(CC(C3)C1)C2 |
| 136 to 140 °C | OCc1cc(I)cc(I)c1 |
| 195 to 197 °C | CN(C)c1ccc2c(c1)C(=O)N(c1ccc3ccsc3c1)C2 |
| 125 to 126 °C | COc1ccc(NC(C)=O)c(Sc2ccc([N+](=O)[O-])cc2[N+](=O)[O-])c1 |
| 145 to 147 °C | CC(C)(CCCC(=O)O)c1ccc2c(c1)C(=O)c1cc(C(C)(C)CCCC(=O)O)ccc1C2=O |
| 88 to 89 °C | COCc1ccc2sc(C(=O)OC)c(C)c2c1 |
| 197 to 198 °C | COC(=O)c1nc(-c2ccc(Cl)c(OC)c2F)nc2ncn(C)c12 |
| 183 to 185 °C | Nc1cc(OCc2ccccc2)c2ncccc2c1 |
| 185 to 186 °C | COC(=O)COc1ccc(Cl)c2c1c1c(n2Cc2ccccc2)CCCC1C(N)=O (stereo not drawn) |
| 130 °C | CCCNC(=O)Nc1ccc(-c2cn3c(n2)C(OC2CCN(C)CC2)c2ccccc2CC3)cc1 (stereo not drawn) |
| 140 to 142 °C | CCCc1c2c(c([N+](=O)[O-])c3c(=O)cc(C(=O)OCC)oc13)CCCC2 |
| 176 to 179 °C | CCCCOc1cc(C=CC(=O)O)n(Cc2ccc(Cl)cc2Cl)n1 |
| 202 to 205 °C | CCCCn1c(=O)c(-c2c(Cl)cccc2Cl)cc2cnc(N)nc21 |

| melting point | SMILES |
| --- | --- |
| 128 to 130 °C | CCCC(=O)c1cnc2c(OC)cccc2c1Nc1ccccc1COC |
| 243 to 244 °C | C=Cc1cnc2c(NC(=O)c3c(Cl)cccc3Cl)cccc2c1CO |
| 158 to 159 °C | Cc1oc(-c2cccc(Br)c2)nc1CCOc1ccc(OC(C)(C)C(=O)O)cc1 |
| 233 to 235 °C | COc1ccc(CNc2nc(CN3CCC(C(=O)O)CC3)nc3oc4c(c23)CCCC4)cc1Cl |
| 154 to 155 °C | Nc1cccc(C2(O)CCOCC2)c1 |
| 92 to 94 °C | CCNC=C(C(=O)C=Cc1ccccc1)C(=O)OC |
| 109 °C | Cc1nc(-c2ccccc2F)cn1-c1ccc(COc2ncc(C(F)(F)F)cc2Cl)cc1 |
| 185 to 186 °C | Cc1nnc(-c2ccc3occ(-c4cc(Cl)ccc4Cl)c3c2)o1 |
| 93 to 96 °C | C=CCCCCCCCCC(=O)N1CCN(c2cc(N3CCCC3)nc(N3CCCC3)n2)CC1 |
| 210 °C | CC[Si](C#Cc1c2cc3ccccc3cc2c(C#C[Si](CC)(CC)CC)c2cc3ccccc3cc12)(CC)CC |
| 145 to 146 °C | O=C(O)C(=O)c1ccc(OCc2ccc3ccccc3c2)cc1 |
| 187 to 189 °C | CC1=NC=C(c2ccc3c(c2)NC(=O)CO3)C(c2ccccc2)S1 (stereo not drawn) |
| 77 to 78 °C | O=C1CCCCCC1C(c1ccc(Cl)cc1)[N+](=O)[O-] (racemic) |
| 75 to 77 °C | CCCONC(=O)c1cc(OC)cc(Oc2cccc(C(F)(F)F)c2)n1 |
| 214 to 215 °C | CCc1cccc(CC)c1NC(=O)Nc1oc2ccc(C)cc2c1-c1ccccc1Cl |
| > 300 °C | O=c1[nH]c2ccc3c(c2[nH]c1=O)NCCC3 |
| 186 to 188 °C | CCCCOC(=O)NCc1nc(-c2ccc3c(c2)Nc2ccccc2S3)cs1 |
| 109 to 110 °C | CC(C)(C)c1cc(C(N)=NO)cc2c1OCC2(C)C |
| 263 to 266 °C | Cn1c(=O)c(-c2ccc(Cl)cc2Cl)cc2c3cc(-c4nc(NS(C)(=O)=O)no4)ccc3n(C)c21 |
| 136 to 139 °C | COc1ccc(C(=NOC(C)=O)c2cccc(F)c2F)c(O)c1Cl |
| 74 °C | Cc1ccc(C(=O)C#CCO)cc1 |

| SMILES | melting point |
| --- | --- |
| Cc1cc(NC2=NCCN2)n(CCC(C)C)n1 | 104 to 106 °C |
| O=C(NC(Oc1ccc(Cl)cc1)C(Cl)(Cl)Cl)c1ccccc1O (stereo not drawn) | 116 to 117 °C |
| CCC(C)OC(=O)CNC(=O)[C@@H](Cc1ccccc1)CN1CC[C@@](C)(c2cccc(O)c2)[C@@H](C)C1 (stereo partly drawn) | 94 °C |
| CC(=O)OC1=CC2=CCC3C(C(F)CC4(C)C(=O)CCC34)C2CC1 (stereo not drawn) | 175 to 177 °C |
| CCCCCCc1cc2c(s1)-n1c(C)nnc1CN=C2c1cccc(C)c1C | 103 to 105 °C |
